# What was measured:
# [1] = target: Bone morphogenetic protein receptor type-1B (Homo sapiens, UniProt O00238); test: Selectivity interaction (KinomeScan (DiscoverX)) EUB0000092b BMPR1B; conditions: at 10 µM
# [2] = target: T1, Interleukin-1 receptor-associated kinase 4 (Homo sapiens) (UniProt Q9NWZ3); test: Selectivity interaction (Upstate Kinase Profiler service (Millipore)) EUB0000056c IRAK4; conditions: at 1 µM
# T1 sequence (whole entry): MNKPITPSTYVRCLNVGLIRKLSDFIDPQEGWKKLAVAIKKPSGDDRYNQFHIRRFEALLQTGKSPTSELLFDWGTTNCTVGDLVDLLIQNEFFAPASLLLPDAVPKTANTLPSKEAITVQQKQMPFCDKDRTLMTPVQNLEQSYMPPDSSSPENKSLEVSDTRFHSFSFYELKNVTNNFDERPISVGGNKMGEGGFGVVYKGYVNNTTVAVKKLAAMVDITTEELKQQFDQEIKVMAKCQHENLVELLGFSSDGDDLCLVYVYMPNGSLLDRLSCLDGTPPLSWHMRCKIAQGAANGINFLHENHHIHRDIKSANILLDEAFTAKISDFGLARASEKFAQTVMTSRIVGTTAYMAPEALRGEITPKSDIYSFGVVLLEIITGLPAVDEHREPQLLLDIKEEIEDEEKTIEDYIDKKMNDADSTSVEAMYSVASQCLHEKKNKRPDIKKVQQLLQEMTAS
# [3] = target: 5-hydroxytryptamine receptor 2A (Homo sapiens, UniProt P28223); test: Selectivity interaction (Safety Panel 44tm (Eurofins)) EUB0000162b HTR2A; conditions: at 10 µM
# [4] = target: Insulin receptor-related protein (Homo sapiens) (UniProt P14616); test: Selectivity interaction (KinomeScan (DiscoverX)) EUB0000655a INSRR; conditions: at 10 µM
# [5] = target: T2, Cyclin-dependent kinase 11A (Homo sapiens) (UniProt Q9UQ88); test: Selectivity interaction (KinomeScan (DiscoverX)) EUB0000655a CDK11A; conditions: at 10 µM
# T2 sequence (whole entry): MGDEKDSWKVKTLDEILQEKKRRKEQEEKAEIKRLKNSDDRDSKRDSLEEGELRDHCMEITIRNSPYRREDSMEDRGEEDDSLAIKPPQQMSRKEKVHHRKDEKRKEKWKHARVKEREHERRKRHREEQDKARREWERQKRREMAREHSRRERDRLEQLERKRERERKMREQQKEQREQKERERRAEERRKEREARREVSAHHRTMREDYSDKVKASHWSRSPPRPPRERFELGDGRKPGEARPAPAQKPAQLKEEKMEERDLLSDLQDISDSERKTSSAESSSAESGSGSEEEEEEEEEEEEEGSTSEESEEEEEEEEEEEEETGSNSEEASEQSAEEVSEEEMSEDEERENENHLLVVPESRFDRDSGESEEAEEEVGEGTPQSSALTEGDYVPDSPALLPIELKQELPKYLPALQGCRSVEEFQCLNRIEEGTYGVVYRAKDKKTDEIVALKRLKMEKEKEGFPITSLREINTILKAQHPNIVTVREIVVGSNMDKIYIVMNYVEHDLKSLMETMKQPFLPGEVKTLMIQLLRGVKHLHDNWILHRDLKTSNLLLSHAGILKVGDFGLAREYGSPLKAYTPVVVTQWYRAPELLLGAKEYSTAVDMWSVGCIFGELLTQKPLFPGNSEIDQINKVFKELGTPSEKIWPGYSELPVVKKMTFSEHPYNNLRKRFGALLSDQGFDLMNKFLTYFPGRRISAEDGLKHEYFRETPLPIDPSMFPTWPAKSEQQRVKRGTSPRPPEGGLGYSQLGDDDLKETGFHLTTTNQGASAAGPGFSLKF
# [6] = target: Casein kinase II subunit alpha (Homo sapiens, UniProt P68400); test: Selectivity interaction (Kinase panel (DSF assay)) EUB0001559a CSNK2A1
# [7] = system: Tyrosine-protein kinase ABL1 (Homo sapiens), P00519 [T315I]; conditions: at 10 µM
# [8] = target: PH-interacting protein (Homo sapiens) (UniProt Q8WWQ0); test: Selectivity interaction (Bromodomain panel (DSF asssay)) EUB0000270b PHIP
# [9] = target: Ribosomal protein S6 kinase beta-1 (Homo sapiens, UniProt P23443); test: Selectivity interaction (Kinase panel (Invitrogen)) EUB0000639a RPS6KB1; conditions: at 200 nM
# [10] = target: Calcium/calmodulin-dependent protein kinase type 1D (Homo sapiens) (UniProt Q8IU85); test: Selectivity interaction (ActivX KiNativ screen (kinase selectivity in THP-1 cell lysates)) EUB0000639a CAMK1D; type: subcellular; conditions: lysate, at 0.01 µM
# [11] = target: Mitogen-activated protein kinase kinase kinase kinase 1 (Homo sapiens) (UniProt Q92918); test: Selectivity interaction (ActivX KiNativ screen (kinase selectivity in THP-1 cell lysates)) EUB0000639a MAP4K1; type: subcellular; conditions: lysate, at 0.04 µM
# [12] = target: Tyrosine-protein kinase Fer (Homo sapiens) (UniProt P16591); test: Selectivity interaction (ActivX KiNativ screen (kinase selectivity in THP-1 cell lysates)) EUB0000639a FER; type: subcellular; conditions: lysate, at 5 µM
# Ephrin type-A receptor 4 = Ephrin type-A receptor 4 (Homo sapiens, UniProt P54764); test: Selectivity interaction (KinomeScan (DiscoverX)) EUB0000045b EPHA4
# [13] = target: MAP/microtubule affinity-regulating kinase 3 (Homo sapiens) (UniProt P27448); test: Selectivity interaction (Ambit KINOMEscan and KiNATiv profiling in Jurkat cells) EUB0000090b MARK3; type: cell-based; conditions: at 1 µM
# [14] = target: T3, Serine/threonine-protein kinase MAK (Homo sapiens) (UniProt P20794); test: Selectivity interaction (KinomeScan (DiscoverX)) EUB0001619a MAK; conditions: at 1 µM
# T3 sequence (whole entry): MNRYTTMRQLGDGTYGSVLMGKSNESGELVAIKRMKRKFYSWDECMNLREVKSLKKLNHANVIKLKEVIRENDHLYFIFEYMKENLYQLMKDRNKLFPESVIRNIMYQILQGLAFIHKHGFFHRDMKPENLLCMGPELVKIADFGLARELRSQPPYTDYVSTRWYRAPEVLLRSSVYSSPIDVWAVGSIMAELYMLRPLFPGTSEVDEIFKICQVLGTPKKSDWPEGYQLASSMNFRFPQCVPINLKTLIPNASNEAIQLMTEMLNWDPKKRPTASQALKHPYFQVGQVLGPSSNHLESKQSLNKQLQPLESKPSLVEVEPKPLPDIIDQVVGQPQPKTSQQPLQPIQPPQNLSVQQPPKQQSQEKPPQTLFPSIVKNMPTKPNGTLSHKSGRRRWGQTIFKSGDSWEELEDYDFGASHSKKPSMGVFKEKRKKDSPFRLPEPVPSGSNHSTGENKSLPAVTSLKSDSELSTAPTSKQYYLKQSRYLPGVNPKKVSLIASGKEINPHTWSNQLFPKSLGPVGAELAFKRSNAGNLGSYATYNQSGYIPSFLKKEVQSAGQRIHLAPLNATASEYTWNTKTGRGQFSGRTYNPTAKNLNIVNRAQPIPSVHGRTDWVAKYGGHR
# Ephrin type-A receptor 4, sequence (P54764 whole entry): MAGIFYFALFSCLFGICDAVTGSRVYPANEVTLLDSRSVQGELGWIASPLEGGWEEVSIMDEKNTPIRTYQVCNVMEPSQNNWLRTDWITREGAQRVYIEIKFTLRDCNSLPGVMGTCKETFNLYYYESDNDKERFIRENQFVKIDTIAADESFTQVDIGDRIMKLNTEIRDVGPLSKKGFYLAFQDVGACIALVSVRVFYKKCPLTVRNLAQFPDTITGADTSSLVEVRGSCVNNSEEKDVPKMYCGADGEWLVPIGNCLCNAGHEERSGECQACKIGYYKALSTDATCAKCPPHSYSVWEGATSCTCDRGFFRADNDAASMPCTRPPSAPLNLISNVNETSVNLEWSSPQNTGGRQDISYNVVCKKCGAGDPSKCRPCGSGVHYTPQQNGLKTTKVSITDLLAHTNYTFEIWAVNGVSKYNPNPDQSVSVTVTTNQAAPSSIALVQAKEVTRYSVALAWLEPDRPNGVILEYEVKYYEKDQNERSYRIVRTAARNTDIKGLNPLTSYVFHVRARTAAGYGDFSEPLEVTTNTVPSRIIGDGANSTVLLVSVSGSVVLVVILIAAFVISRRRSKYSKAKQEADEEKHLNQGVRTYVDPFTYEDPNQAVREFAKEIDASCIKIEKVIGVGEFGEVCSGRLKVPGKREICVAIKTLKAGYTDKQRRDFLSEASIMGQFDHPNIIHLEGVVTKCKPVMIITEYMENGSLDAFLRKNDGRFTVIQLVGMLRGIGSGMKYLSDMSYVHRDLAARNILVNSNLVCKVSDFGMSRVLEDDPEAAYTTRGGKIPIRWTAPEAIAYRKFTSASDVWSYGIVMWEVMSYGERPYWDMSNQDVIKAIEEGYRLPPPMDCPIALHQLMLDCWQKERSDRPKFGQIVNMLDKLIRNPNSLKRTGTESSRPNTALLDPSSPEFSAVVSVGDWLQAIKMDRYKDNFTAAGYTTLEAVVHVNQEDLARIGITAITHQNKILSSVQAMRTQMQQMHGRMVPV
# Mitogen-activated protein kinase kinase kinase kinase 1 (Homo sapiens), sequence (Q92918 whole entry, looked up): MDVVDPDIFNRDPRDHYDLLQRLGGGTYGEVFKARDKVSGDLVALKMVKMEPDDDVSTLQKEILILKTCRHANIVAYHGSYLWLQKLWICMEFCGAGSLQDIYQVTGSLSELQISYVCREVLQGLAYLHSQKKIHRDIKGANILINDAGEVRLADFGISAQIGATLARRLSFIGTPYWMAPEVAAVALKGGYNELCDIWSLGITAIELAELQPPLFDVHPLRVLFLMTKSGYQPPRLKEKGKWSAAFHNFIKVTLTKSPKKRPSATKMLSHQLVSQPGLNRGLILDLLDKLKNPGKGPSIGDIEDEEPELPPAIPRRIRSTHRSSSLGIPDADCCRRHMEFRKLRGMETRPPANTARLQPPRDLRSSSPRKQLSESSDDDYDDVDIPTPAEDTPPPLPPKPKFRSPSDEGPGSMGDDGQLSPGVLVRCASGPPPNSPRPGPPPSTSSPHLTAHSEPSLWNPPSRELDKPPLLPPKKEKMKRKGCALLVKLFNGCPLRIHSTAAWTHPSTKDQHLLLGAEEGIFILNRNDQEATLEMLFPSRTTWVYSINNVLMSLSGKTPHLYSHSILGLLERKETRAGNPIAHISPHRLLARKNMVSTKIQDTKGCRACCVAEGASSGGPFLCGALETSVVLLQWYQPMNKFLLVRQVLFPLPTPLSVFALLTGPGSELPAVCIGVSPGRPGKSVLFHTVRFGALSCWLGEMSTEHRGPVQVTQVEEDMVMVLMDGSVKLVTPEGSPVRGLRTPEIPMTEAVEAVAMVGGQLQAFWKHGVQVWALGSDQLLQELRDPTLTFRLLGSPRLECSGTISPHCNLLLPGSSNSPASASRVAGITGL
# Tyrosine-protein kinase Fer (Homo sapiens), sequence (P16591 whole entry, looked up): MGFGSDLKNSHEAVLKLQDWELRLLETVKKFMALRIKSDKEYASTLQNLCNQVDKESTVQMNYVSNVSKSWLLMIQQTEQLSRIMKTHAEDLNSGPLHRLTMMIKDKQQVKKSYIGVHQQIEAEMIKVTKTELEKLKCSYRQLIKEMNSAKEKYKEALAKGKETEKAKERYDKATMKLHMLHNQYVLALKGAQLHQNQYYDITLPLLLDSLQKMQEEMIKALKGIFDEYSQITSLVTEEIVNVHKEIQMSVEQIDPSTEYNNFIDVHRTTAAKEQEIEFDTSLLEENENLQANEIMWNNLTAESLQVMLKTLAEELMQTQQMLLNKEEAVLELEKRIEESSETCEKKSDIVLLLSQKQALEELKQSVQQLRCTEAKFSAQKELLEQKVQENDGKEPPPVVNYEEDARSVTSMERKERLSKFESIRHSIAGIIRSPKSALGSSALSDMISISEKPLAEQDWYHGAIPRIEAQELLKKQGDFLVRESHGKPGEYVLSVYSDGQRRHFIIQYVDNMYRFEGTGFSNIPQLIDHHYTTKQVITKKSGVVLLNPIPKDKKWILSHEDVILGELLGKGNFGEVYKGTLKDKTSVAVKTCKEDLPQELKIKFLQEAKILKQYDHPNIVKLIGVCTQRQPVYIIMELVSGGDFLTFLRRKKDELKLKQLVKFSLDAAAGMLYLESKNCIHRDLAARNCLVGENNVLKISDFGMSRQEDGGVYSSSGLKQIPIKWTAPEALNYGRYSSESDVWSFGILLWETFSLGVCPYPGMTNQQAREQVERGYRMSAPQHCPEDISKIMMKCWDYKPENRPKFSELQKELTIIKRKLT
# Ribosomal protein S6 kinase beta-1, sequence (P23443 whole entry, looked up): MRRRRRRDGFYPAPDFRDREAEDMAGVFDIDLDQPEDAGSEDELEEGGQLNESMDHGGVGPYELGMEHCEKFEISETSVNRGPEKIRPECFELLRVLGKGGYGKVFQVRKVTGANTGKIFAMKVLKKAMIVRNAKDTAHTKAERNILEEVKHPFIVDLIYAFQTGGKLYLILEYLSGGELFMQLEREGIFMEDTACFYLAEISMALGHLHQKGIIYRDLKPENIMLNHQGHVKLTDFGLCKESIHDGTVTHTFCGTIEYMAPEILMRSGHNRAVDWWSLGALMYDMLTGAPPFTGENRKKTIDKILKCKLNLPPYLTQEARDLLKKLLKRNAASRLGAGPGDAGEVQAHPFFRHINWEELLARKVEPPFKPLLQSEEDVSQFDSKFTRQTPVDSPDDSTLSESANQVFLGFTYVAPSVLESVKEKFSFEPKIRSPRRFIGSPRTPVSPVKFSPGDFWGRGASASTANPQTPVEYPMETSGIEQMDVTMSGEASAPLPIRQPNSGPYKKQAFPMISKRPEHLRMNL
# MAP/microtubule affinity-regulating kinase 3 (Homo sapiens), sequence (P27448 whole entry, looked up): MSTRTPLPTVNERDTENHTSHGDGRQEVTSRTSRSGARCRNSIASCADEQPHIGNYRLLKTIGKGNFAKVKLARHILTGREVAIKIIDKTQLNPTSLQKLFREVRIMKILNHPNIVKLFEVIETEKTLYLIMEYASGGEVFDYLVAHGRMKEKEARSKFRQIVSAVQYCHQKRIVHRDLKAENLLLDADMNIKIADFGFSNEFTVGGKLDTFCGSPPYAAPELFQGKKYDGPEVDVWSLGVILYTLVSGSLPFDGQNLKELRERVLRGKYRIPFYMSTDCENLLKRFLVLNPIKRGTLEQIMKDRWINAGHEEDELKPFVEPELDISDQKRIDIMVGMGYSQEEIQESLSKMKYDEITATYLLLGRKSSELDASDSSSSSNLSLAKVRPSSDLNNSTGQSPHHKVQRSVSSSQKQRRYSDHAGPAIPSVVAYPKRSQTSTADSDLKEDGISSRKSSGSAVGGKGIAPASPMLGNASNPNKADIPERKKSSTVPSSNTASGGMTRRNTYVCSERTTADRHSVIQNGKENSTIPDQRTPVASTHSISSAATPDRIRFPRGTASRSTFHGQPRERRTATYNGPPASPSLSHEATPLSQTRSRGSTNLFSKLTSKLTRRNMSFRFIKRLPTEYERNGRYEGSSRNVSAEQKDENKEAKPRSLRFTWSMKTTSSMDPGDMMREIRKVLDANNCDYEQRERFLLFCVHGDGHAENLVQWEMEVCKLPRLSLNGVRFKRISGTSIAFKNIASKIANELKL
# Casein kinase II subunit alpha, sequence (P68400 whole entry, looked up): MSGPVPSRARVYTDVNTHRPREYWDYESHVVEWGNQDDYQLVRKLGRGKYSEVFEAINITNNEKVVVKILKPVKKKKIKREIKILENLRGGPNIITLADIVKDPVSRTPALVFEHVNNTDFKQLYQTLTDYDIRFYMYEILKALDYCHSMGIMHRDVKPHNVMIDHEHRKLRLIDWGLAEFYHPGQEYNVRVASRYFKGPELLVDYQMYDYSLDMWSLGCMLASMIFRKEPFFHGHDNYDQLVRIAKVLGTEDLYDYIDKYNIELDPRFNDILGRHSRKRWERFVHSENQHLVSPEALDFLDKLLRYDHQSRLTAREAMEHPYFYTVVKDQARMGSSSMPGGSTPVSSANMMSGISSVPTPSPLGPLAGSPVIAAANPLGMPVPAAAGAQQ
# Calcium/calmodulin-dependent protein kinase type 1D (Homo sapiens), sequence (Q8IU85 whole entry, looked up): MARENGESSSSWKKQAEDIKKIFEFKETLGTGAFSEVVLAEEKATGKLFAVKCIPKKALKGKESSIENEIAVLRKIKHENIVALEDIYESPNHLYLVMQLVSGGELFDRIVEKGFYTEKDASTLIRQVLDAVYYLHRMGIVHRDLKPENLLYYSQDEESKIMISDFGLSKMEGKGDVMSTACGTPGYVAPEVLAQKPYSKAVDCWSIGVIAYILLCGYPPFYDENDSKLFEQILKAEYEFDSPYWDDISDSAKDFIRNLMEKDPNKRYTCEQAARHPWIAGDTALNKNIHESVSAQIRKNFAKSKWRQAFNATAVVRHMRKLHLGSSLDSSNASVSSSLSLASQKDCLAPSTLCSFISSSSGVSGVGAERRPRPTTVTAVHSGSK
structure (smiles),measurement,setting,value
CCC(=O)N1CCN(c2ccc(-n3c(=O)ccc4cnc5ccc(-c6cnc7ccccc7c6)cc5c43)cc2C(F)(F)F)CC1,% of control,[1],100%
Cc1ccc(-c2ccc3c(ccc4sc5c(c43)NC[C@@H](C)NC5=O)n2)cn1,% of inhibition,[2],13%
CN(C)C(=O)Cn1cc(-c2ccc(-c3cncc4ccccc34)cc2)cn1,% of control,[3],87%
CN(C)CCOc1ccc(-c2nc(-c3ccncc3)c(-c3ccc4c(c3)CC/C4=N\O)[nH]2)cc1,% of control,[4],100%
same,% of control,[5],98%
CN(C(=O)c1cnn2cccnc12)c1cc2c(cc1N1CCOCC1)C(=O)N(C[C@@H](F)C(C)(C)O)C2,dTM,[6],-0.4 K
Cc1cc([C@@H](C)Nc2ccccc2C(=O)O)c2nc(N3CCOCC3)cc(=O)n2c1 [AZD-6482],% of control,[7],100%
Cc1cc(CN)cc(C)c1-c1ncn(C)c1-c1cncn1C,dTM,[8],-1.36 K
CC[C@@H]1[C@H](F)C(=O)N[C@@H]1COc1nccc2cc(C(N)=O)c(OC)cc12 [ZIMLOVISERTIB],% of inhibition,[9],17.4%
same,% of inhibition,[10],-1.8%
same,% of inhibition,[11],-4.8%
same,% of inhibition,[12],-6.1%
C=CC(=O)Nc1cc(-n2c(=O)ccc3cnc4ccc(-c5ccc(NS(C)(=O)=O)cc5)cc4c32)ccc1C,% of control,Ephrin type-A receptor 4; at 1 µM,89%
same,% of control,Ephrin type-A receptor 4; at 10 µM,100%
CN(C)C/C=C/C(=O)Nc1ccc(C(=O)N2CCCC(Nc3ncc(Cl)c(-c4c[nH]c5ccccc45)n3)C2)cc1 (stereo unspecified),% of control,[13],88%
N#Cc1cccc(-c2c[nH]c3ncnc(N4CCOCC4)c23)c1,% of control,[14],94%
